PMC12095047, “Transport of phenoxyacetic acid herbicides by PIN-FORMED auxin transporters” (Nature Plants, 2025)
Several values for one entry are separate records, joined by “and”; a condition that tells them apart may be missing. Equal entries are not always repeated.

Key:
A. thaliana PIN3 = biological target: T1, A. thaliana PIN3 (Arabidopsis thaliana, UniProt Q9S7Z8); experiment: Xenopus oocyte efflux assay, PIN3 with or without PID kinase; format: cell-based; details: for Rel. 2,4-D transport rate (% exported/min): replicates; for Rel. 2,4-D transport rate: PIN3 oocytes, individual experiments
T1 construct: expressed in transfected cells; host or cells: Xenopus oocytes (cRNA injection)
T1 sequence (Q9S7Z8 1-640): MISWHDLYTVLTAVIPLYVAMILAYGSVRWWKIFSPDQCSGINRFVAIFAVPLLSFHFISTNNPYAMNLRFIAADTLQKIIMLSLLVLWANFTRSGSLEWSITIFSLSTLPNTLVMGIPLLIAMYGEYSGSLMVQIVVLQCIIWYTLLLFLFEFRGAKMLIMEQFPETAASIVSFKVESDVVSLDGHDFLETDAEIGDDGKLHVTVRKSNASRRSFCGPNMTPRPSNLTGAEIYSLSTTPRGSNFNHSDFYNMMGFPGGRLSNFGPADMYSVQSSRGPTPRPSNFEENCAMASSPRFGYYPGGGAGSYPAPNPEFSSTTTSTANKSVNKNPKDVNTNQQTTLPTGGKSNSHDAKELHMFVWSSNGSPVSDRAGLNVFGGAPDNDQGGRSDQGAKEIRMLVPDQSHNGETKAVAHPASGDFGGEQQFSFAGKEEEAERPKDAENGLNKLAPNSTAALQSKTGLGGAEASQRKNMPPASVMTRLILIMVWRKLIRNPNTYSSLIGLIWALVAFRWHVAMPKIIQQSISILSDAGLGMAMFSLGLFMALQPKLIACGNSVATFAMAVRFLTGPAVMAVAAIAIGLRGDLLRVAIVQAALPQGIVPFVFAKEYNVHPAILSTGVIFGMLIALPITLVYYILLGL
Protocol: Oocyte efflux experiments were carried out as described[12],[20],[26]. Briefly, oocytes were injected with 150 ng transporter complementary RNA without or with 75 ng kinase cRNA. [^3H]-IAA (25 Ci mmol^−1) and [^3H]-4-CPA (37.7 Ci mmol^−1) was purchased from RC Tritec. [^3H]-2,4-D (25 Ci mmol^−1) was purchased from ARC. Oocytes were injected with substrate to reach an internal concentration of 1 µM, corresponding to 100%. Residual radioactivity was determined for each individual oocyte by liquid scintillation counting after the time points indicated and are expressed relative to the initial 100%. Each time point represents the mean and s.e. of ten oocytes. To calculate the relative transport rate in percentage per minute, linear regression was performed. Each data point in Fig. 1b,c and Extended Data Fig. 2b,e represents the transport rate of one biological replicate using oocytes collected from different Xenopus females.

[1] = cited from earlier work
PIN8 = biological target: T2, PIN8 (Arabidopsis thaliana, UniProt Q9LFP6); design: method as in PMID 35768502; details: read-out: IAA binding affinity KD, previously described; cited from earlier work
T2 construct: made in house
T2 sequence (Q9LFP6 1-367): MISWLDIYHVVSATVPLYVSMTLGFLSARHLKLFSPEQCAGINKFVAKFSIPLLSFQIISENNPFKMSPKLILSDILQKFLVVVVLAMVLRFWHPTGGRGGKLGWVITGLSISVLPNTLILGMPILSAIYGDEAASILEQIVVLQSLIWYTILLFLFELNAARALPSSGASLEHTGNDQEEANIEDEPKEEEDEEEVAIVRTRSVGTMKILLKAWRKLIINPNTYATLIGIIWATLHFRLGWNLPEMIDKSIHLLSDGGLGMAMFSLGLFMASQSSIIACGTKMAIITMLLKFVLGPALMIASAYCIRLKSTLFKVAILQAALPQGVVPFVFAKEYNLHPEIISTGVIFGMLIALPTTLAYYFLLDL

O=C(O)COc1ccc(Cl)cc1Cl [2,4-D, 2,4-dichlorophenoxyacetic acid]
Rel. 2,4-D transport rate (% exported/min) (A. thaliana PIN3; PID +): 2.469 % exported/min and 1.491 % exported/min and 1.857 % exported/min
Rel. 2,4-D transport rate (% exported/min) (A. thaliana PIN3; PID -): 1.104 % exported/min and -0.5881 % exported/min and -1.06 % exported/min
export rate relative to the IAA transport rate (A. thaliana PIN3; PIN3 activated by PID kinase, NPA-sensitive): about half of the IAA transport rate
Rel. 2,4-D transport rate (A. thaliana PIN3; PID +, NPA + (10 μM)): 0.306 % exported/min and 0.1671 % exported/min and -0.318 % exported/min
Rel. 2,4-D transport rate (A. thaliana PIN3; PID +, NPA -): 2.085 % exported/min and 2.202 % exported/min and 1.56 % exported/min
Rel. 2,4-D transport rate (A. thaliana PIN3; PID -, NPA + (10 μM)): 0.4736 % exported/min and -0.2953 % exported/min and -0.2713 % exported/min
Rel. 2,4-D transport rate (A. thaliana PIN3; PID -, NPA -): -0.1695 % exported/min and 0.4151 % exported/min and -0.6296 % exported/min
acid dissociation constant pKa [1]: 2.73

O=C(O)Cc1c[nH]c2ccccc12 [IAA, indole-3-acetic acid]
Rel. IAA transport rate (% exported/min) (A. thaliana PIN3; PID +, NPA -, single experiments): 5.59 % exported/min and 5.28 % exported/min and 4.145 % exported/min
Kd (PIN8): 40 ± 15 µM
acid dissociation constant pKa [1]: 4.7
